From patent US8471005B2 (Cephalon, Inc., priority 2008, dated 2013)
Read-outs that look alike come from different tables or passages of the source.

Key:
ALK = target: T1, ALK (Homo sapiens, UniProt Q9UM73); test: ALK Kinase Assay (ELISA/TRF, PLC-γ substrate); format: biochemical; conditions: read-out: ALK Potency
T1 construct: host or cells: baculovirus expression system
Method in brief: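 IC50 values derive from percent inhibition plotted against log10 compound concentration and fitted to a variable-slope sigmoidal equation. The underlying reaction used 30 ng/ml ALK acting on immobilized PLC-γ (10 μg/mL in TBS) at 37° C for 15 minutes, read with Eu-N1 PT66 antibody.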

JAK2 = target: T2, JAK2 (Homo sapiens, UniProt O60674); test: Recombinant Human JAK2 Kinase Assay (TRF); format: biochemical; conditions: read-out: JAK2 Potency
T2 construct: host or cells: baculovirus expression system
T2 sequence (O60674 whole entry): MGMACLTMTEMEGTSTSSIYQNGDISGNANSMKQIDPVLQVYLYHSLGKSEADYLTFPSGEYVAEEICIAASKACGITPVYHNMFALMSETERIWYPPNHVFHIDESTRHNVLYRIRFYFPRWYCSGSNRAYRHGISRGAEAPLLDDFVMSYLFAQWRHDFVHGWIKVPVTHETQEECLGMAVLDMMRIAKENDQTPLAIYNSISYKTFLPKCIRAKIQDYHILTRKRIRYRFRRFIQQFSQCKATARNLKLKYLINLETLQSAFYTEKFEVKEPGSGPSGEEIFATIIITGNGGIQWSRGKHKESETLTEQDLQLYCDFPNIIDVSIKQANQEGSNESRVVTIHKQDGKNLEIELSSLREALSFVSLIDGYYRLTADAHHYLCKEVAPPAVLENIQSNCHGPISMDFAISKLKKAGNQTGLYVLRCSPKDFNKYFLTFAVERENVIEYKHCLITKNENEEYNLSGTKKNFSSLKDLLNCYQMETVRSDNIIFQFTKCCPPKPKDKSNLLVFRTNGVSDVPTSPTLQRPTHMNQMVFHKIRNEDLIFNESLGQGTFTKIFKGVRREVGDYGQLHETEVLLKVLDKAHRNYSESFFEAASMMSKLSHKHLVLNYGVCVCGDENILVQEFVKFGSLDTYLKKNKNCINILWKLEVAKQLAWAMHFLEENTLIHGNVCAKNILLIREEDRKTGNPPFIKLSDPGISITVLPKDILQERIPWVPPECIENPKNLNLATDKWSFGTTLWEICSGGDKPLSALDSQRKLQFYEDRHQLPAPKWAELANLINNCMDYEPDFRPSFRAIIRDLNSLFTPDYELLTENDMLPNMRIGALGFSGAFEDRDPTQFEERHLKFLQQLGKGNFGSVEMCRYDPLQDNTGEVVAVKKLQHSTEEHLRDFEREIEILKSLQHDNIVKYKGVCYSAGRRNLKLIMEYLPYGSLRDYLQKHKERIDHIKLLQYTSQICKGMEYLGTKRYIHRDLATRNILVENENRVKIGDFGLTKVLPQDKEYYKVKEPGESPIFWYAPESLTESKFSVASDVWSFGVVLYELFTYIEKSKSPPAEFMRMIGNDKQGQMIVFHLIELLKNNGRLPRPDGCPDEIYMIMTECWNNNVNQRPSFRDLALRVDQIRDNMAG
Method in brief: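 TRF read-out: Eu-N1 PY100 anti-phosphotyrosine antibody detects product. Enzyme is baculovirus-expressed JAK2 at 15 ng/ml; substrate is a biotinyl 15-mer peptide bound to Neutravidin-coated wells. Buffer 20 mM HEPES pH 7.2, 0.2 μM ATP, 1 mM MnCl2, 0.1% BSA, 2.5% DMSO final; 20 min, RT.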

[1] = ALK kinase inhibition, 1 μM ATP
[2] = JAK2 kinase inhibition, 0.2 μM ATP

T1 sequence (Q9UM73 19-1620): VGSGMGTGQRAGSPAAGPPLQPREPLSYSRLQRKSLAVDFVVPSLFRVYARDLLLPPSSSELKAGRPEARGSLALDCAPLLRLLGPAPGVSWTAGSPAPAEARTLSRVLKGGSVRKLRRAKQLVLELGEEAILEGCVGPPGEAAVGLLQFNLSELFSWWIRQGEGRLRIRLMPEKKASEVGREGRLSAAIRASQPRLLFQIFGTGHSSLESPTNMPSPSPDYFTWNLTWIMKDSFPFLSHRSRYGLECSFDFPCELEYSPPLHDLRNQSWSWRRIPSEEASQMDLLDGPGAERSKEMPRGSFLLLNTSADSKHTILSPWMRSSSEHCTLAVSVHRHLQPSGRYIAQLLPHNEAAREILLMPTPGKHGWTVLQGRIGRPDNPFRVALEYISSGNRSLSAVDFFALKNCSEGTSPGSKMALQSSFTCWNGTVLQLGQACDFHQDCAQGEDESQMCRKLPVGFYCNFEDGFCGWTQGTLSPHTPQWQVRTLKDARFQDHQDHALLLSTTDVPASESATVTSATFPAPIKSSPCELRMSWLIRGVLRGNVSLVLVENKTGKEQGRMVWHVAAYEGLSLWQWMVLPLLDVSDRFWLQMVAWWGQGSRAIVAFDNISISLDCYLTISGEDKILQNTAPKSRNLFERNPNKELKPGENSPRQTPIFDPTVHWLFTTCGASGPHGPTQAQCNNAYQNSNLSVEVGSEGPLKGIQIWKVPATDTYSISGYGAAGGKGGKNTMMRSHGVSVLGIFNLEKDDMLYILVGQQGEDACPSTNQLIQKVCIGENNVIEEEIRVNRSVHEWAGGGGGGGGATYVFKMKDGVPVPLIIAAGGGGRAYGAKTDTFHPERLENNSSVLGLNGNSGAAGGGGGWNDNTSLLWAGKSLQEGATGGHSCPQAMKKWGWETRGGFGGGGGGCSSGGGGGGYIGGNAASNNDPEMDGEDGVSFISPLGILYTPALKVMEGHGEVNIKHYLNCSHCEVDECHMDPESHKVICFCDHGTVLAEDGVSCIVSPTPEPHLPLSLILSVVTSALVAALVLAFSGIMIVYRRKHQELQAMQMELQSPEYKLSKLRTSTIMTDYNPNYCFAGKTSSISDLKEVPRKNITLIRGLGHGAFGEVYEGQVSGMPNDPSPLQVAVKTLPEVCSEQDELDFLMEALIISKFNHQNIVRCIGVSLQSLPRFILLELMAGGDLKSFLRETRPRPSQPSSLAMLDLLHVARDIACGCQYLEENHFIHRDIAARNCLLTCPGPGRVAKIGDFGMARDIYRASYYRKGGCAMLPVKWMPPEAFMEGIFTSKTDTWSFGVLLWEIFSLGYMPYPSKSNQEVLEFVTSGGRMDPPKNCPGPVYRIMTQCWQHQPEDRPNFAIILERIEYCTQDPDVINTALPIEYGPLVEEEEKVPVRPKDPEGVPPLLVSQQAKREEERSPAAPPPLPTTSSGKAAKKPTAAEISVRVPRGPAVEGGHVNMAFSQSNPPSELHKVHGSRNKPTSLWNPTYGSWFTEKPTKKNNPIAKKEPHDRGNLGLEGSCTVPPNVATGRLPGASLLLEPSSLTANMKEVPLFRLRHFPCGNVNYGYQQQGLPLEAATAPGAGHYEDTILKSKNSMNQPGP

| Molecule | IC50 (ALK; ALK Kinase Inhibition) | IC50 (JAK2; JAK2 Kinase Inhibition) | IC50 (ALK; [1]) | IC50 (JAK2; [2]) |
| --- | --- | --- | --- | --- |
| CN1CCN(C2CCCN(c3ccc(Nc4ncc5ccc(-c6ccc(S(C)(=O)=O)cc6)n5n4)cc3)C2)CC1 (centres unmarked) [Example 351, [7-(4-Methanesulfonyl-phenyl)-pyrrolo[2,1-f][1,2,4]triazin-2-yl]-{4-[3-(4-methyl-piperazin-1-yl)-piperidin-1-yl]-phenyl}-amine] | 100 to 1000 nM | < 100 nM |  |  |
| COc1ccccc1-c1ccc2cnc(Nc3ccc(OCCN4CCN(C)CC4)cc3)nn12 [Example 94, [7-(2-Methoxy-phenyl)-pyrrolo[2,1-f][1,2,4]triazin-2-yl]-{4-[2-(4-methyl-piperazin-1-yl)-ethoxy]-phenyl}-amine] | < 100 nM | < 100 nM |  |  |
| (7-Pyridin-3-yl-pyrrolo[2,1-f][1,2,4]triazin-2-yl)-[4-(2-pyrrolidin-1-yl-ethoxy)-phenyl]-amine [Example 126] | 100 to 1000 nM | < 100 nM |  |  |
| COc1cccc(-c2ccn3nc(Nc4ccc(N5CCN(C)CC5)cc4)ncc23)c1 [Example 725, [5-(3-Methoxy-phenyl)-pyrrolo[2,1-f][1,2,4]triazin-2-yl]-[4-(4-methyl-piperazin-1-yl)-phenyl]-amine] |  |  | > 10000 nM | > 10000 nM |
| COc1ccc(OC)c(-c2ccc3cnc(Nc4ccc(N5CCN(C)CC5)cc4)nn23)c1 [Example 425, [7-(2,5-Dimethoxy-phenyl)-pyrrolo[2,1-f][1,2,4]triazin-2-yl]-[4-(4-methyl-piperazin-1-yl)-phenyl]-amine] | 100 to 1000 nM | < 100 nM |  |  |
| c1cc2c(c(-c3ccc4cnc(Nc5cnc6c(N7CCNCC7)cccc6c5)nn34)c1)OCC2 [Example 710, [7-(2,3-Dihydro-benzofuran-7-yl)-pyrrolo[2,1-f][1,2,4]triazin-2-yl]-(8-piperazin-1-yl-quinolin-3-yl)-amine] |  |  | > 10000 nM | 1000 to 10000 nM |

Now from value to molecule:

| IC50 (ALK; ALK Kinase Inhibition) | IC50 (JAK2; JAK2 Kinase Inhibition) | IC50 (ALK; [1]) | IC50 (JAK2; [2]) | Molecule |
| --- | --- | --- | --- | --- |
|  |  | 1000 to 10000 nM | < 100 nM | CS(=O)(=O)c1ccc(-c2ccc3cnc(Nc4ccc(-c5cccnc5)cc4)nn23)cc1 [Example 1089, [7-(4-Methanesulfonyl-phenyl)-pyrrolo[2,1-f][1,2,4]triazin-2-yl]-(4-pyridin-3-yl-phenyl)-amine] |
| < 100 nM | < 100 nM |  |  | COc1cc(N2CCN(C3CCOCC3)CC2)ccc1Nc1ncc2ccc(-c3ccccc3OC)n2n1 [Example 1472, [7-(2-Methoxy-phenyl)-pyrrolo[2,1-f][1,2,4]triazin-2-yl]-{2-methoxy-4-[4-(tetrahydro-pyran-4-yl)-piperazin-1-yl]-phenyl}-amine] |
| 100 to 1000 nM | < 100 nM |  |  | CN(c1ccccc1-c1ccc2cnc(Nc3ccc(CN4CCCC4)cc3)nn12)S(C)(=O)=O [Example 1428, N-Methyl-N-{2-[2-(4-pyrrolidin-1-ylmethyl-phenylamino)-pyrrolo[2,1-f][1,2,4]triazin-7-yl]-phenyl}-methane sulfonamide] |
|  |  | 1000 to 10000 nM | < 100 nM | CN(c1ccccc1-c1ccc2cnc(Nc3ccc4ncn(CCN5CCOCC5)c4c3)nn12)S(C)(=O)=O [Example 1336, N-Methyl-N-(2-{2-[3-(2-morpholin-4-yl-ethyl)-3H-benzimidazol-5-ylamino]-pyrrolo[2,1-f][1,2,4]triazin-7-yl}-phenyl)-methanesulfonamide] |
|  |  | 100 to 1000 nM | < 100 nM | COc1ccccc1-c1ccc2cnc(Nc3ccc4c(c3)CN(CC(N)=O)CC4)nn12 [Example 987, 2-{7-[7-(2-Methoxy-phenyl)-pyrrolo[2,1-f][1,2,4]triazin-2-ylamino]-3,4-dihydro-1H-isoquinolin-2-yl}-acetamide] |
|  |  | > 10000 nM | 1000 to 10000 nM | CN1CCc2ccc(Nc3ncc4c(-c5ccc(F)cc5)ccn4n3)cc2C1 [Example 728, [5-(4-Fluoro-phenyl)-pyrrolo[2,1-f][1,2,4]triazin-2-yl]-(2-methyl-1,2,3,4-tetrahydro-isoquinolin-7-yl)-amine] |
| 1000 to 10000 nM | < 100 nM |  |  | CC(C)(C)NS(=O)(=O)c1cccc(-c2ccc3cnc(Nc4cccc(-n5cccn5)c4)nn23)c1 [Example 1386, N-tert-Butyl-3-[2-(3-pyrazol-1-yl-phenylamino)-pyrrolo[2,1-f][1,2,4]triazin-7-yl]-benzenesulfonamide] |
